According to ChEMBL document CHEMBL3045899, “New asperxanthone and asperbiphenyl from the marine fungus Aspergillus sp” (2009):

tested on: Tobacco mosaic virus; test: Inhibitory activity against Tobacco mosaic virus (TMV) inoculated in Nicotiana tabacum L. cv.K326 leaf assessed as inhibition of virus multiplication at 0.2 mg/ml measured by leaf disk method (reference value: 0%); format: functional

Point of comparison: `CCCCCCCC/C=C/C=C/CCCCCCCCCCCCCC/C=C/C=C/CCCC(=O)OCC(O)CO` (centres undefined), inhibition at 200 µg/mL 17.4%. Against it:
- CCCCCCCC/C=C/C=C/CCCCCCCCCCCCCCCCCCCCCC(=O)OC(CO)CO — lower, 16.3%
- CCCCCCCC/C=C/C=C/CCCCCCCCCCCCCC/C=C/C=C/CCCC(=O)OC(CO)CO — lower, 14.3%
- CCCCCCCCCCCCCCCCCCCCCCCCCC/C=C/C=C/C=C/CCC(=O)OC(CO)CO — lower, 13.9%
- CCCCCCCCCC/C=C/C=C/CCCC(=O)OCC(O)CO (centres undefined) — lower, 12.5%
- CCCCCCCCCCC/C=C/C=C/CCCC(=O)OCC(O)CO (centres undefined) — lower, 14.9%
- CCCCCCC/C=C/C=C/CCCC(=O)OC(CO)CO — lower, 14.2%
- Cc1c(O)c(-c2c(O)c(C)c3c(c2O)CO[C@H](C)[C@H]3C)c(O)c2c1[C@@H](C)[C@H](C)OC2 [ASPERBIPHENYL] — higher, 35.5%
- COc1cc2oc3cccc(O)c3c(=O)c2c2c1[C@@H]1C=CO[C@@H]1O2 [ASPERXANTHONE] — higher, 62.9%
